The source of these data is patent publication US12410164B2, “Heterocyclic compounds and medical use thereof” (FONDAZIONE TELETHON, priority 2018, dated 2025).

Each structure is given as a SMILES string. “Also recorded” adds a separate entry of the source.

In assay [1] the target is T1, F508del-CFTR (Homo sapiens, UniProt P13569, DEL508-508). Put plainly: HS-YFP kinetic fluorescence (iodide quenching rate) assay in CFBE41o− cells. Format: cell-based. Details: expressed in transfected cells; host or cells: CFBE41o- cells with expression of F508del-CFTR and HS-YFP (generated as in Sondo et al. 2011). As to conditions: for AI (%) additivity index: Table 1, compound at 10 μM plus VX-809, (QRTOT − QRVX)/QRVX, HS-YFP assay; for structure-activity comparison of corrector potency/activity: relative to the analogue. A digest of the protocol:
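CFBE41o- cells co-expressing F508del-CFTR and HS-YFP, treated 24 h with compound (0.1-0.2% DMSO), then stimulated with 20 μM forskolin plus 50 μM genistein. Fluorescence was read for 14 s during NaI injection. Background-subtracted, normalized traces were fitted exponentially to give maximum quenching rate (QR).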

In assay [2] the target is T1, F508del-CFTR. Put plainly: Analysis of F508del-CFTR maturation by immunoblot in CFBE41o− cells. Details: expressed in transfected cells; host or cells: CFBE41o- cells with expression of F508del-CFTR and HS-YFP (generated as in Sondo et al. 2011). As to conditions: compound 10 μM plus VX-809 1 μM, 24 hr. Format: cell-based. The method, then:
CFBE41o− cells were grown to confluence on 60-mm diameter dishes and lysed in RIPA buffer containing a complete protease inhibitor (Roche; cat. n. 11697498001). Cell lysates were centrifuged at 12000 rpm at 4° C. for 10 min. Supernatant protein concentration was calculated using the BCA assay (Euroclone; cat. n. EMP014500) following the manufacturer's instructions. Equal amounts of total protein content (30 μg) were separated onto 10% Criterion TGX Precast gels (Bio-rad laboratories Inc.; cat. n. 4561033), transferred to nitrocellulose membrane with Trans-Blot Turbo system (Bio-rad Laboratories Inc.) and analyzed by Western blotting. Primary antibody for CFTR was anti-CFTR 596 (University of North Carolina at Chapel Hill, and Cystic Fibrosis Foundation Therapeutics, see Cui L, et al. J. Mol Biol 2007, 365, 981-994) at 1:5000 dilution. As secondary antibody, anti-mouse HRP-conjugated Ab 97023 (Abcam) was used at 1:10000 dilution. Results were subsequently visualized by chemiluminescence using the SuperSignal West Femto Substrate (Thermo Scientific) and the Molecular Imager ChemiDoc XRS System.
To analyze the mechanism of action of the compounds of the invention, two types of experiments were carried out. In the first type of experiment, the electrophoretic mobility of F508del-CFTR protein was determined by immunoblot assay. This is a frequently used method to assess the effect of correctors at the protein level. In control conditions, F508del-CFTR migrates predominantly as a single band of 150 kDa called “band B”. This is the immature form of the protein residing in the endoplasmic reticulum. When the protein folding and stability is improved by correctors, an additional band appears at higher molecular weight (170 kDa). This is the so-called band C, which represents the mature form of the CFTR protein that has reached the Golgi compartment and acquired full glycosylation.
(A western blot detects proteins with antibodies after separation by electrophoresis.)

T1 sequence (P13569 with tags, fused parts or gaps DEL508-508): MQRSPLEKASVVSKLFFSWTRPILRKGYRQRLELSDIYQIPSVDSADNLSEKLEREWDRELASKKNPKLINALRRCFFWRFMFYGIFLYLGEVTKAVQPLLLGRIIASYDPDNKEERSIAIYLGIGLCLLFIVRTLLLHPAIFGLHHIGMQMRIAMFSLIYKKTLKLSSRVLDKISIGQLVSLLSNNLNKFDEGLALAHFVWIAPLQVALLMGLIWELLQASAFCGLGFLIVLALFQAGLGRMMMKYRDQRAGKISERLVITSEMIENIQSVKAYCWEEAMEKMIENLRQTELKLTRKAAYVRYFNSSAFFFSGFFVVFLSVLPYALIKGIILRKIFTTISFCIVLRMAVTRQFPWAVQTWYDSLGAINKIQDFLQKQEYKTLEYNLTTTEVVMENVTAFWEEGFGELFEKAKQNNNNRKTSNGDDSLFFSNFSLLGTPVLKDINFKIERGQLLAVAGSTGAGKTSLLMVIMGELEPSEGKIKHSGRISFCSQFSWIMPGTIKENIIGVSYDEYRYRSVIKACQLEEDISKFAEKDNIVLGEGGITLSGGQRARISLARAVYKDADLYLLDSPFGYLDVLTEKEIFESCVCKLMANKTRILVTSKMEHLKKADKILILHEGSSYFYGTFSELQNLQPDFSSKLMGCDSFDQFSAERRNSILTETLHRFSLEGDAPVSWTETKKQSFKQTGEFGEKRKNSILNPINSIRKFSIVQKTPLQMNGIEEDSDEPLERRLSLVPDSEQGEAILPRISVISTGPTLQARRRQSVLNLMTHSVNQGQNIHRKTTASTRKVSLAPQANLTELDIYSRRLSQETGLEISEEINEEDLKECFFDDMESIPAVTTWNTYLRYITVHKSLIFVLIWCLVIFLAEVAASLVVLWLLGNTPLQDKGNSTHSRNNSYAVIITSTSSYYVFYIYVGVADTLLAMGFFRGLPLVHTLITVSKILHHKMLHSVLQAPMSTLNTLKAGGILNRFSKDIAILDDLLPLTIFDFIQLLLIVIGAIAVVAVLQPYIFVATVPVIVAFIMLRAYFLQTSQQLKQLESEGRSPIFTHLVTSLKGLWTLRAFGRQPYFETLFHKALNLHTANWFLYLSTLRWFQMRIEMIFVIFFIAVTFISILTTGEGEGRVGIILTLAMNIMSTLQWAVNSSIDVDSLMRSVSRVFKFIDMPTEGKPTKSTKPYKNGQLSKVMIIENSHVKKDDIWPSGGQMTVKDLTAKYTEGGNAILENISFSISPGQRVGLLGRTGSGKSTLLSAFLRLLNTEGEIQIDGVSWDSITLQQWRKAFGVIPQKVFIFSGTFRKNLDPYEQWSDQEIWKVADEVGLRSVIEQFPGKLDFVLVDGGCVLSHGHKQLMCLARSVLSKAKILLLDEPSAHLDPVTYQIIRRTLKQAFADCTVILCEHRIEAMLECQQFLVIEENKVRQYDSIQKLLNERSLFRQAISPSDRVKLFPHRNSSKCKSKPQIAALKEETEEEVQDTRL

In the case of `CCOC(=O)c1c(Br)c2c(n1Cc1ccc(C)cc1)-c1[nH]c(=O)c(S(=O)(=O)c3ccccc3)cc1CC2` [PP008, Ethyl 7-(benzenesulfonyl)-3-bromo-1-[(4-methylphenyl)methyl]-8-oxo-4,5,8,9-tetrahydro-1H-pyrrolo[3,2-h]quinoline-2-carboxylate], at F508del-CFTR [1], the “AI (%) additivity index” value amounted to 207% and the “structure-activity comparison of corrector potency/activity” value is recorded as “important increase in potency; also recorded: more potent than the non-halogenated analogues”. Also, the “F508del-CFTR activity (quenching rate) of combination with VX-809” value at F508del-CFTR [1] (compound plus VX-809 1 μM, 24 h) was “strong synergistic effect”. Besides, the “band C (mature form) expression versus VX-809 alone” value at F508del-CFTR [2] is on record as “markedly enhances the abundance of the mature form of the protein; also recorded: marked increase in band C expression”.
Turning to `CCOC(=O)c1c(Br)c2c(n1Cc1cccc(C)c1)-c1[nH]c(=O)c(S(=O)(=O)c3ccccc3)cc1CC2` [PP028, Ethyl 3-bromo 1-(3-methylbenzyl)-8-oxo-7-(phenylsulfonyl)-4,5,8,9-tetrahydro-1H-pyrrolo[3,2-h]quinoline-2-carboxylate], at F508del-CFTR [1], the “AI (%) additivity index” value is 278%; the “structure-activity comparison of corrector potency/activity” value is “important increase in efficiency in combination with the VX-809 and potency”. Besides, the “band C (mature form) expression versus VX-809 alone” value on F508del-CFTR [2] is listed as “markedly enhances the abundance of the mature form of the protein; also recorded: marked increase in band C expression”.
